Reference: US20240207292A1, “BORONIC ACID COMPOUNDS, COMPOSITIONS AND METHODS” (Trustees of Tufts College, priority 2021, published 2024)
Several values for one entry are separate records, joined by “and”; a condition that tells them apart may be missing. Equal values may be shown once. Read-outs that look alike come from different tables or passages of the source. Square brackets hold non-standard residues; d marks the D form. Peptide text beside a SMILES is read from it. * marks the point of attachment. X3 = O=C1CN2CCN3CC(=O)O[C]4(C3)CN(CC(=O)*)CCN3CC(=O)O[C](C2)(C3)[Lu]4[O]1; X4 = O=C1CN2CCN3CC(=O)O[C]4(C3)CN(CC(=O)*)CCN3CC(=O)O[C](C2)(C3)[Ga]4[O]1; X2 = O=C(O)CN1CCCN(CC(=O)O)CCN(CC(=O)*)CCCN(CC(=O)O)CC1; boroPro = OB(O)[C@@H]1CCCN1*

Experiments:
Type in all cases: biochemical
recombinant human FAP = recombinant human FAP (Homo sapiens (Human), UniProt Q12884); assay: In vitro enzyme IC50 assay, FAP (Example 16); settings: 10 min preincubation at 25° C.; Z-Gly-Pro-AMC
Method: Biological Materials: For the in vitro IC50 determination assays, recombinant human DPPIV, DPP9, FAP, and PREP were purchased from R&D Systems, and DPP8 was from Biomol International. Buffer systems used were A (25 mM Tris, pH 8.0), B (50 mM Tris, pH 7.5), C (50 mM Tris, 140 mM NaCl, pH 7.5), D (25 mM Tris, 250 mM NaCl, pH 7.5), and E (20 mM Tris, 20 mM KCl, pH 7.4). […] Substrate Specificity Assay. Peptide libraries (0.21 mM) were incubated for 24 h with 1 nM FAP in buffer E at 37° C. The reaction was quenched by the addition of 1.2 N HCl. The samples were analyzed by reverse-phase HPLC-MS on a Thermo Finnigan LCQ Duo, quantifying the peaks in the resulting base peak chromatograms. Relative cleavage values were determined by comparing the postquench abundance of intact peptides to those in the initial library.
In Vitro Enzyme IC50 Assays. Enzymatic activity of DPPIV, DPP8, DPP9, FAP, and PREP was measured at 25° C. on a Molecular Devices M2e multidetection microtiter plate reader, monitoring the fluorescence at an excitation wavelength of 380 nm and an emission wavelength of 460 nm. The substrate was either H-Gly-Pro-AMC for the DPPIV, DPP8, and DPP9 assays or Z-Gly-Pro-AMC for the FAP and PREP assays. […] The final enzyme concentrations were 0.1, 0.8, 0.4, 1.2, and 0.6 nM for DPPIV, DPP8, DPP9, FAP, and PREP, respectively. […] Those prepared in pH 2.0 solution were preincubated at 25° C. for 4 h prior to dilution. Immediately prior to the commencement of the experiment, the 100 mM stocks were further diluted to 10^-3 M in the appropriate assay buffer, from which 1:10 serial dilutions were prepared. All inhibitors were tested in triplicate.

[1] = biological target: recombinant human prolyl oligopeptidase (PREP) (Homo sapiens (Human), UniProt P48147); assay: In vitro assay prolyl oligopeptidase IC50 (Example 21)
Method: (§1) The purpose of this assay is to determine the IC50 of various inhibitors against recombinant human dipeptidyl peptidase IV (DPPIV), fibroblast activation protein (FAP) or prolyl oligopeptidase (PREP).
(§2) The assays are conducted in the following steps: • 1 Dissolve the compound in DMSO to a final concentration of 100 mM. From this, prepare a 1 mM stock at pH 7.5 in 50 mM Tris, 140 mM NaCl Buffer (FAP)/pH 7.5 in 25 mM Tris, 250 mM NaCl Buffer/[…]. • 2. Serial dilute (1:10) the 1 mM compound stocks prepared previously into the appropriate assay buffer (FAP: 50 mM Tris, 140 mM NaCl, pH 7.5/PREP: 25 mM Tris, 0.25 M NaCl, pH 7.5/DPPIV: 25 mM Tris, pH 8.0) to one row of a 96-well plate. • 3. […] Dilute the enzymes into their appropriate assay buffers. The final enzyme concentrations should be 0.1, 1.2, and 0.6 nM for DPPIV, FAP and PREP respectively. Add 180 μL to each well needed in columns 2-10. Column 1(A,B,C) should be prepared with 200 μl of appropriate assay buffer as control. Column 1(D,E,F,G,H) should be prepared with 20 μl of appropriate assay buffer and 180 ul enzyme as no inhibitor control. • 5. Add 20 μL of the compound of interest from the dilution plate prepared in step 2 to columns 2-10 of the assay plate where appropriate. Each sample should be tested in triplicate. Allow this to incubate for 10 minutes at room temperature, shaking the plate for the first two minutes. • 6. Add 10 μL of 20× substrate prepared in step 3 to each well and allow this to incubate for 15 minutes at room temperature, shaking the plate for the first two minutes. • 7. Read the fluorescence at λex: 380, λem: 460. (DPcore=[dAla|dSer|Gly]-[boroPro|Pro-nitrile], XXaa=alpha-amino acid)

[2] = biological target: recombinant human dipeptidyl peptidase IV (DPPIV) (Homo sapiens (Human), UniProt P27487); assay: In vitro assay dipeptidyl peptidase IV IC50 (Example 21)
Method: as §1, §2

[3] = biological target: recombinant human fibroblast activation protein (FAP) (Homo sapiens (Human), UniProt Q12884); assay: In vitro assay fibroblast activation protein IC50 (Example 21)
Method: as §1, §2

Chain of recombinant human prolyl oligopeptidase (PREP) (P48147 whole entry): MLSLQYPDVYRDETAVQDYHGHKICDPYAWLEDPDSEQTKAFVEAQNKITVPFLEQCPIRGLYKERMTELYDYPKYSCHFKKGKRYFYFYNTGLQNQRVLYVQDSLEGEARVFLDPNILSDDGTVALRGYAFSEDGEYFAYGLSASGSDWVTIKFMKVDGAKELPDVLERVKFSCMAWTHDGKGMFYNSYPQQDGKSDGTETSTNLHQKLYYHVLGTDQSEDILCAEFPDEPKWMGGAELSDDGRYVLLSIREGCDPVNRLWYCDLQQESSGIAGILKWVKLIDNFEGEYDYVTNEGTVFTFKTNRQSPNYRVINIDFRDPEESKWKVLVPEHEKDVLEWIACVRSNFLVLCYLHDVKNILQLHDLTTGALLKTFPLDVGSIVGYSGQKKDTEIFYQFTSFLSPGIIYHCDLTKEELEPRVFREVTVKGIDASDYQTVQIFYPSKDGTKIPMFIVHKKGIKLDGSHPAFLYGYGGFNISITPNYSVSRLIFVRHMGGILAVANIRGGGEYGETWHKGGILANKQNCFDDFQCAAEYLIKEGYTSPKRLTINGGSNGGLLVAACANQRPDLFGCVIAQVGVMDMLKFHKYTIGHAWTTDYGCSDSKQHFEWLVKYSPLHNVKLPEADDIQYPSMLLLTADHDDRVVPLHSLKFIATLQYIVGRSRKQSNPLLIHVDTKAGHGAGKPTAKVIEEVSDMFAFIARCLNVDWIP
Chain of recombinant human dipeptidyl peptidase IV (DPPIV) (P27487 whole entry): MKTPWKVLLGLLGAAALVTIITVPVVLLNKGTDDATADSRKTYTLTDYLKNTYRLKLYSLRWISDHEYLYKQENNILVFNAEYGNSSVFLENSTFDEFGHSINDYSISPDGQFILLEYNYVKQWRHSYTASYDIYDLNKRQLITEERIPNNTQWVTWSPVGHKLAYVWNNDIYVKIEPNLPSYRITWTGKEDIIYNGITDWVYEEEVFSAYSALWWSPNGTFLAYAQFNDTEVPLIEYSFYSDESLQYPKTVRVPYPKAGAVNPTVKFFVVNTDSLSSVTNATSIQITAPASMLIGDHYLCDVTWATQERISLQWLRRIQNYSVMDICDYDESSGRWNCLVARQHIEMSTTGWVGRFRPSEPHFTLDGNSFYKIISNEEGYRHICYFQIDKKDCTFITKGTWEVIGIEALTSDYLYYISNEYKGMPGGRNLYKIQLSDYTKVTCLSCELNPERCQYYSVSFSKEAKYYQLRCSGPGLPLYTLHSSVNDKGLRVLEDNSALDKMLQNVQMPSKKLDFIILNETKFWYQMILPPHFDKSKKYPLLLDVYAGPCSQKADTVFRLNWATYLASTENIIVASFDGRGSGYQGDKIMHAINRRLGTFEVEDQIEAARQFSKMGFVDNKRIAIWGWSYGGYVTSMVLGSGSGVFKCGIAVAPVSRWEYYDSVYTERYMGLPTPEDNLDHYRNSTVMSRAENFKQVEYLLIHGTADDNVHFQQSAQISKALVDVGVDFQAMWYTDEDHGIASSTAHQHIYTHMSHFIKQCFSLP
Chain of recombinant human fibroblast activation protein (FAP) (Q12884 whole entry): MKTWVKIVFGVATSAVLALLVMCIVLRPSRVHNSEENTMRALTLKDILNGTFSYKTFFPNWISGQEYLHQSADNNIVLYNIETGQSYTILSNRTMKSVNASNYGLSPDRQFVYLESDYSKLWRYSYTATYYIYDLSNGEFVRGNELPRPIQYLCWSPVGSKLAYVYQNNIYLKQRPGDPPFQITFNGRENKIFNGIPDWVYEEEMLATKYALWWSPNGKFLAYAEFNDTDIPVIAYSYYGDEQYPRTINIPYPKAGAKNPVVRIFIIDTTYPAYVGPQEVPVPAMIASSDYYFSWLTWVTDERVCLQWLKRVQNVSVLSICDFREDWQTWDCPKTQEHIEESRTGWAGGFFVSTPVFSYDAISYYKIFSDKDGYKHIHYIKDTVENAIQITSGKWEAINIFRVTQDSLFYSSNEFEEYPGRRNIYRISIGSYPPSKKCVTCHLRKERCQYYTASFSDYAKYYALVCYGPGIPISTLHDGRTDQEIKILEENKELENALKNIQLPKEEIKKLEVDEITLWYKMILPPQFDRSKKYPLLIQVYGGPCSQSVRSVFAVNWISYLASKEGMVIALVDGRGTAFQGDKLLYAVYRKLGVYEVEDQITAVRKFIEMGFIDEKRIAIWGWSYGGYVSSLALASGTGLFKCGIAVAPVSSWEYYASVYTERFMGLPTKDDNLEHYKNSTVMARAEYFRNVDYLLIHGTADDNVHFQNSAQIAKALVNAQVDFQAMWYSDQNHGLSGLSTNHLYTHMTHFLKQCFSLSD
Chain of recombinant human FAP (Q12884 whole entry): as above

| Compound | IC50 (recombinant human FAP) [nM] | IC50 [3] | IC50 ([3]; Z-Gly-Pro-AMC, 1.2 nM enzyme) [nM] | also measured |
| --- | --- | --- | --- | --- |
| C[C@@H](NC(=O)c1ccc(NNC(=O)CN2CCN(CC(=O)O)CCN(CC(=O)O)CCN(CC(=O)O)CC2)cc1)C(=O)N1CCC[C@H]1B(O)O [4536B, DOTA-HyBz-D-Ala-boroPro] | 2.7 |  |  |  |
| C[C@@H](NC(=O)c1ccc(NNC(=O)CCCCC[N+]2=C(/C=C/C3=C(Oc4ccc(S(=O)(=O)O)cc4)C(=C/C=C4/N(CCCCS(=O)(=O)O)c5ccc(S(=O)(=O)O)cc5C4(C)C)/CCC3)C(C)(C)c3cc(S(=O)(=O)O)ccc32)nc1)C(=O)N1CCC[C@H]1B(O)O [4613 B] |  | 8.8 nM and 10 nM |  | IC50 [1]: 390 nM; IC50 [2]: > 100000 nM |
| C[C@@H](NC(=O)c1ccc(NNC(=O)CCCCCNC(=O)CN2CCN3CCN4CCN(CC2)CC(=O)[O][Ga]([O]OC(=O)C3)[O]C(=O)C4)cc1)C(=O)N1CCC[C@H]1B(O)O [6486 GA] |  | 81 nM |  | IC50 [1]: 4700 nM; IC50 [2]: > 100000 nM |
| C[C@@H](NC(=O)c1ccc(NNC(=O)CCCCCNC(=O)CN2CCN(CC(=O)O)CCN(CC(=O)O)CCN(CC(=O)O)CC2)cc1)C(=O)N1CCC[C@H]1B(O)O [6486S, DOTA-EACA-HyBz-D-Ala-boroPro] | 1.7 |  |  |  |
| C[C@@H](NC(=O)c1ccc(NNC(=O)CNC(=O)CN2CCN(CC(=O)O)CCN(CC(=O)O)CCN(CC(=O)O)CC2)cc1)C(=O)N1CCC[C@H]1B(O)O [6487S, DOTA-Gly-HyBz-D-Ala-boroPro] | 2.1 |  |  |  |
| C[C@@H](NC(=O)c1ccc(NNC(=O)CCNC(=O)CN2CCN(CC(=O)O)CCN(CC(=O)O)CCN(CC(=O)O)CC2)cc1)C(=O)N1CCC[C@H]1B(O)O [6488S, DOTA-betaAla-HyBz-D-Ala-boroPro] | 8.8 | 8.8 nM |  |  |
| C[C@@H](NC(=O)c1ccc(NNC(=O)CCCNC(=O)CN2CCN3CCN4CCN(CC2)CC(=O)[O][Ga]([O]C(=O)C3)[O]C(=O)C4)nc1)C(=O)N1CCC[C@H]1B(O)O [6489 GA] |  | 39 nM |  | IC50 [1]: 3400 nM; IC50 [2]: > 100000 nM |
| C[C@@H](NC(=O)c1ccc(NNC(=O)CCCNC(=O)CN2CCN(CC(=O)O)CCN(CC(=O)O)CCN(CC(=O)O)CC2)cc1)C(=O)N1CCC[C@H]1B(O)O [6489S, DOTA-GABA-HyBz-D-Ala-boroPro] | 0.8 |  |  |  |
| CC(C)[C@H](NC(=O)CNC(=O)CNC(=O)CN1CCN2CC(=O)O[C]3(CN4CCN5CC(=O)O[C](C1)(C5)[Ga]3[O]C(=O)C4)C2)C(=O)N[C@H](C)C(=O)N1CCC[C@H]1B(O)O (stereo partly drawn) [6522GA-02] (X4-GGV[dA]-boroPro) |  |  | 575 | IC50 ([1]; Z-Gly-Pro-AMC, 0.6 nM enzyme): 19000 nM; IC50 ([2]; Gly-Pro-AMC, 0.1 nM enzyme): > 100000 nM |
| CC(C)[C@H](NC(=O)CNC(=O)CNC(=O)CN1CCN2CC(=O)O[C]3(CN4CCN5CC(=O)O[C](C1)(C5)[Lu]3[O]C(=O)C4)C2)C(=O)N[C@H](C)C(=O)N1CCC[C@H]1B(O)O (stereo partly drawn) [6522LU] (X3-GGV[dA]-boroPro) |  |  | 26 | IC50 ([1]; Z-Gly-Pro-AMC, 0.6 nM enzyme): 19000 nM; IC50 ([2]; Gly-Pro-AMC, 0.1 nM enzyme): > 100000 nM |
| CC(C)[C@H](NC(=O)CNC(=O)CNC(=O)CN1CCCN(CC(=O)O)CCN(CC(=O)O)CCCN(CC(=O)O)CC1)C(=O)N[C@@H](C)C(=O)N1CCC[C@H]1B(O)O [6522L] (X2-GGVA-boroPro) |  |  | > 100000 | IC50 ([1]; Z-Gly-Pro-AMC, 0.6 nM enzyme): 7.6 nM; IC50 ([2]; Gly-Pro-AMC, 0.1 nM enzyme): 3400 nM |
| C[C@@H](NC(=O)c1ccc(NC(=O)CN2CCN3CCN(CC(=O)O)CCN(CC2)CC(=O)[O][Cu][O]C(=O)C3)cc1)C(=O)N1CCC[C@H]1B(O)O [6572CU, DOTA[Cu(II)]-PABA-D-Ala-boroPro] | 12.6 |  |  |  |
| CC(C)[C@H](NC(=O)CNC(=O)CC[C@@H]1C(=O)[O][Lu]23[O]C(=O)CN4CCN(CCN1CCN(CC4)CC(=O)[O]2)CC(=O)[O]3)C(=O)N[C@H](C)C(=O)N1CCC[C@H]1B(O)O [6795DLU] |  |  | 60 | IC50 ([1]; Z-Gly-Pro-AMC, 0.6 nM enzyme): 10000 nM; IC50 ([2]; Gly-Pro-AMC, 0.1 nM enzyme): > 100000 nM |
| CC(C)[C@H](NC(=O)CNC(=O)CC[C@H](C(=O)O)N1CCN(CC(=O)O)CCN(CC(=O)O)CCN(CC(=O)O)CC1)C(=O)N[C@H](C)C(=O)N1CCC[C@H]1B(O)O [6795D] |  |  | 17 | IC50 ([1]; Z-Gly-Pro-AMC, 0.6 nM enzyme): 7450 nM; IC50 ([2]; Gly-Pro-AMC, 0.1 nM enzyme): > 100000 nM |
| C[C@@H](NC(=O)[C@H]1CC[C@H](CNC(=O)CN2CCN3CCN4CCN(CC2)CC(=O)[O][Ga]([O]C(=O)C3)[O]C(=O)C4)CC1)C(=O)N1CCC[C@H]1B(O)O [6952 GA] |  |  | 87 | IC50 ([1]; Z-Gly-Pro-AMC, 0.6 nM enzyme): 50000 nM; IC50 ([2]; Gly-Pro-AMC, 0.1 nM enzyme): 80000 nM |
| C[C@@H](NC(=O)[C@H]1CC[C@H](CNC(=O)CN2CCN3CCN4CCN(CC2)CC(=O)[O][Lu]([O]C(=O)C3)[O]C(=O)C4)CC1)C(=O)N1CCC[C@H]1B(O)O [6952 LU] |  |  | 14 | IC50 ([1]; Z-Gly-Pro-AMC, 0.6 nM enzyme): 21000 nM; IC50 ([2]; Gly-Pro-AMC, 0.1 nM enzyme): > 100000 nM |
| C[C@@H](NC(=O)c1ccc(NN)nc1)C(=O)N1CCC[C@H]1B(O)O [compound 3860] |  | 170 nM |  | IC50 [1]: 9800 nM; IC50 [2]: > 100000 nM |
| C[C@@H](NC(=O)c1ccc(NNC(=O)CN2CCN(CC(=O)O)CCN(CC(=O)O)CCN(CC(=O)O)CC2)nc1)C(=O)N1CCC[C@H]1B(O)O [compound 4536] |  | 9 nM |  | IC50 [1]: 50 nM; IC50 [2]: 84000 nM |
| C[C@@H](NC(=O)c1ccc(NNC(=O)CN2CCN3CCN(CC(=O)O)CCN(CC2)CC(=O)[O][Cu][O]C(=O)C3)cc1)C(=O)N1CCC[C@H]1B(O)O [compound 6481, DOTA[Cu(II)]-HyBz-D-Ala-boroPro] | 10.3 |  |  |  |
| C[C@@H](NC(=O)c1ccc(NNC(=O)CCNC(=O)CN2CCN3CCN(CC(=O)O)CCN(CC2)CC(=O)[O][Cu][O]C(=O)C3)cc1)C(=O)N1CCC[C@H]1B(O)O [compound 6488, DOTA[Cu]-betaAla-HyBz-D-Ala-boroPro] | 34.3 | 34.3 nM |  |  |
| CC(C)[C@H](NC(=O)CNC(=O)CN1CCN(CC(=O)O)CCN(CC(=O)O)CCN(CC(=O)O)CC1)C(=O)N[C@H](C)C(=O)N1CCC[C@H]1B(O)O [compound 6521, DOTA-Gly-Val-D-Ala-boroPro] | 6.9 |  | 6.9 |  |
| N[C@@H](CCCCNC(=O)CN1CCN(CC(=O)O)CCN(CC(=O)O)CCN(CC(=O)O)CC1)C(=O)N1CCC[C@H]1B(O)O [compound 6549, Lys(DOTA)-boroPro] | 3.2 | 2.9 nM |  |  |
| C[C@@H](NC(=O)c1ccc(CNC(=O)CN2CCN(CC(=O)O)CCN(CC(=O)O)CCN(CC(=O)O)CC2)nc1)C(=O)N1CCC[C@H]1B(O)O [compound 6556, DOTA-aminomethyl-Nic-D-Ala-boroPro] | 2.4 | 2.4 nM |  |  |
| C[C@@H](NC(=O)c1ccc(NC(=O)CN2CCN(CC(=O)O)CCN(CC(=O)O)CCN(CC(=O)O)CC2)cc1)C(=O)N1CCC[C@H]1B(O)O [compound 6572, DOTA-PABA-D-Ala-boroPro] | 1.6 | 1.6 nM |  |  |
